No end group written: not given here.
Experiment: Plasma pharmacokinetics of ALM201 in Phase I patients (validated LC-MS/MS, Phoenix WinNonlin)
Details: for AUC(0-t): AUC0-t; for AUC(0-t) / Cmax: Gmean (CV); for level at 0.25 h: day 1 cycle 1, 0.25 h after dosing; for level at 0.75 h: day 1 cycle 1, 0.75 h after dosing; for Tmax: median
[1] = cycle 1, excluding patient 03.012
[2] = human, plasma, sc, 10 mg, 10 mg SC, day 1 cycle 1, n = 1, plasma LC-MS/MS
[3] = human, plasma, sc, 10 mg, 10 mg SC, day 3 cycle 1, n = 1, plasma LC-MS/MS
[4] = human, plasma, sc, 10 mg, 10 mg SC, day 18 cycle 1, n = 1, plasma LC-MS/MS
[5] = human, plasma, sc, 10 mg, 10 mg SC, day 18 cycle 2, n = 1, plasma LC-MS/MS
[6] = human, plasma, sc, 10 mg, 10 mg SC, day 18 cycle 4, n = 1, plasma LC-MS/MS
[7] = human, plasma, sc, 10 mg, 10 mg SC, day 18 cycle 6, n = 1, plasma LC-MS/MS
[8] = human, plasma, sc, 10 mg, Plasma concentration, geometric mean (CV%), 10 mg SC, n = 1, LC-MS/MS
[9] = human, plasma, sc, 20 mg, 20 mg SC, day 1 cycle 1, n = 1, plasma LC-MS/MS
[10] = human, plasma, sc, 20 mg, 20 mg SC, day 3 cycle 1, n = 1, plasma LC-MS/MS
[11] = human, plasma, sc, 20 mg, 20 mg SC, day 18 cycle 1, n = 1, plasma LC-MS/MS
[12] = human, plasma, sc, 20 mg, 20 mg SC, day 18 cycle 2, n = 1, plasma LC-MS/MS
[13] = human, plasma, sc, 20 mg, Plasma concentration, geometric mean (CV%), 20 mg SC, n = 1, LC-MS/MS

IRQQPRDPPTETLELEVSPDPAS [ALM201]
Plasma concentration, geometric mean (CV%) (10 mg SC, day 1 cycle 1, 4 h after dosing, n = 1, LC-MS/MS): NQ (not quantifiable (less than assay limit of quantification of 100 ng/mL)) | Plasma concentration, geometric mean (CV%) (10 mg SC, day 1 cycle 1, 5 h after dosing, n = 1, LC-MS/MS): NQ (not quantifiable (less than assay limit of quantification of 100 ng/mL)) | Plasma concentration, geometric mean (CV%) (10 mg SC, day 1 cycle 1, 6 h after dosing, n = 1, LC-MS/MS): NQ (not quantifiable (less than assay limit of quantification of 100 ng/mL)) | Plasma concentration, geometric mean (CV%) (10 mg SC, day 1 cycle 1, 22 h after dosing, n = 1, LC-MS/MS): NQ (not quantifiable (less than assay limit of quantification of 100 ng/mL)) | Plasma concentration, geometric mean (CV%) (10 mg SC, day 3 cycle 1, 5 h after dosing, n = 1, LC-MS/MS): NQ (not quantifiable (less than assay limit of quantification of 100 ng/mL)) | Plasma concentration, geometric mean (CV%) (10 mg SC, day 18 cycle 1, 5 h after dosing, n = 1, LC-MS/MS): NQ (not quantifiable (less than assay limit of quantification of 100 ng/mL)) | Plasma concentration, geometric mean (CV%) (20 mg SC, day 1 cycle 1, 4 h after dosing, n = 1, LC-MS/MS): NQ (not quantifiable (less than assay limit of quantification of 100 ng/mL)) | Plasma concentration, geometric mean (CV%) (20 mg SC, day 1 cycle 1, 5 h after dosing, n = 1, LC-MS/MS): NQ (not quantifiable (less than assay limit of quantification of 100 ng/mL)) | Plasma concentration, geometric mean (CV%) (20 mg SC, day 1 cycle 1, 6 h after dosing, n = 1, LC-MS/MS): NQ (not quantifiable (less than assay limit of quantification of 100 ng/mL)) | Plasma concentration, geometric mean (CV%) (20 mg SC, day 1 cycle 1, 22 h after dosing, n = 1, LC-MS/MS): NQ (not quantifiable (less than assay limit of quantification of 100 ng/mL)) | Plasma concentration, geometric mean (CV%) (20 mg SC, day 3 cycle 1, 5 h after dosing, n = 1, LC-MS/MS): NQ (not quantifiable (less than assay limit of quantification of 100 ng/mL)) | Plasma concentration, geometric mean (CV%) (20 mg SC, day 18 cycle 1, 5 h after dosing, n = 1, LC-MS/MS): NQ (not quantifiable (less than assay limit of quantification of 100 ng/mL)) | Tmax, median (20 mg SC, day 18 cycle 2, n = 1, plasma LC-MS/MS): 1 h | Plasma concentration, geometric mean (CV%) (40 mg SC, day 1 cycle 1, 6 h after dosing, n = 1, LC-MS/MS): NQ (not quantifiable (less than assay limit of quantification of 100 ng/mL)) | Plasma concentration, geometric mean (CV%) (40 mg SC, day 1 cycle 1, 22 h after dosing, n = 1, LC-MS/MS): NQ (not quantifiable (less than assay limit of quantification of 100 ng/mL)) | Cmax, Gmean (CV) (40 mg SC, day 18 cycle 2, n = 1, plasma LC-MS/MS): 583 ng/mL | Plasma concentration, geometric mean (CV%) (80 mg SC, day 1 cycle 1, 22 h after dosing, n = 3, LC-MS/MS): NQ (not quantifiable (less than assay limit of quantification of 100 ng/mL)) | Tmax, median (80 mg SC, day 3 cycle 1, n = 3, plasma LC-MS/MS): 1.5 h | Plasma concentration, geometric mean (CV%) (100 mg SC, day 1 cycle 1, 22 h after dosing, n = 4, LC-MS/MS): NQ (not quantifiable (less than assay limit of quantification of 100 ng/mL)) | Plasma concentration, geometric mean (CV%) (160 mg SC, day 1 cycle 1, 22 h after dosing, n = 3, LC-MS/MS): NQ (not quantifiable (less than assay limit of quantification of 100 ng/mL)) | Tmax, median (160 mg SC, day 3 cycle 1, n = 3, plasma LC-MS/MS): 1.52 h | Tmax, median (160 mg SC, day 18 cycle 1, n = 3, plasma LC-MS/MS): 1.5 h | Plasma concentration, geometric mean (CV%) (200 mg SC, day 1 cycle 1, 22 h after dosing, n = 4, LC-MS/MS): NQ (not quantifiable (less than assay limit of quantification of 100 ng/mL)) | AUC0-t, Gmean (CV) (200 mg SC, day 18 cycle 2, n = 2, CV not calculated, plasma LC-MS/MS): 5680 ng·h/mL | Plasma concentration, geometric mean (CV%) (300 mg SC, day 1 cycle 1, 22 h after dosing, n = 3, LC-MS/MS): NQ (not quantifiable (less than assay limit of quantification of 100 ng/mL)) | AUC0-t, Gmean (CV) (300 mg SC, day 18 cycle 1, n = 3, plasma LC-MS/MS): 12,100 (6) ng.h/mL | Tmax, median (300 mg SC, day 18 cycle 2, n = 3, plasma LC-MS/MS): 2 h | Day 18:day 1 AUC0-t ratio, mean ± SD (cycle 1, all patients): 1.27 ± 1.32 | Day 18:day 1 Cmax ratio, mean ± SD (cycle 1, all patients): 1.25 ± 0.97 | Day 18:day 1 AUC0-t ratio, mean ± SD [1]: 0.95 ± 0.26 | Day 18:day 1 Cmax ratio, mean ± SD [1]: 1.03 ± 0.39 | Half-life (human, plasma, sc): ~1.5 h | AUC(0-t) [2]: 485 ng·h/mL | AUC(0-t) [3]: 868 ng·h/mL | AUC(0-t) [4]: 817 ng·h/mL | AUC(0-t) [5]: 702 ng·h/mL | AUC(0-t) [6]: 476 ng·h/mL | AUC(0-t) [7]: 1040 ng·h/mL | Cmax [2]: 200 ng/mL | Cmax [3]: 406 ng/mL | Cmax [4]: 352 ng/mL | Cmax [5]: 288 ng/mL | Cmax [6]: 193 ng/mL | Cmax [7]: 470 ng/mL | level at 0.25 h [8]: 106 ng/mL | level at 0.75 h [8]: 150 ng/mL | level at 1.5 h (human, plasma, sc, 10 mg, Plasma concentration, geometric mean (CV%), 10 mg SC, day 1 cycle 1, 1.5 h after dosing, n = 1, LC-MS/MS): 200 ng/mL | level at 2 h (human, plasma, sc, 10 mg, Plasma concentration, geometric mean (CV%), 10 mg SC, day 1 cycle 1, 2 h after dosing, n = 1, LC-MS/MS): 199 ng/mL | level at 3 h (human, plasma, sc, 10 mg, Plasma concentration, geometric mean (CV%), 10 mg SC, day 1 cycle 1, 3 h after dosing, n = 1, LC-MS/MS): 153 ng/mL | level at 0.5 h (human, plasma, sc, 10 mg, Plasma concentration, geometric mean (CV%), 10 mg SC, day 3 cycle 1, 0.5 h after dosing, n = 1, LC-MS/MS): 406 ng/mL | level at 1 h (human, plasma, sc, 10 mg, Plasma concentration, geometric mean (CV%), 10 mg SC, day 3 cycle 1, 1 h after dosing, n = 1, LC-MS/MS): 325 ng/mL | level at 1.5 h (human, plasma, sc, 10 mg, Plasma concentration, geometric mean (CV%), 10 mg SC, day 3 cycle 1, 1.5 h after dosing, n = 1, LC-MS/MS): 294 ng/mL | level at 2 h (human, plasma, sc, 10 mg, Plasma concentration, geometric mean (CV%), 10 mg SC, day 3 cycle 1, 2 h after dosing, n = 1, LC-MS/MS): 242 ng/mL | level at 3.5 h (human, plasma, sc, 10 mg, Plasma concentration, geometric mean (CV%), 10 mg SC, day 3 cycle 1, 3.5 h after dosing, n = 1, LC-MS/MS): 127 ng/mL | level at 0.5 h (human, plasma, sc, 10 mg, Plasma concentration, geometric mean (CV%), 10 mg SC, day 18 cycle 1, 0.5 h after dosing, n = 1, LC-MS/MS): 188 ng/mL | level at 1 h (human, plasma, sc, 10 mg, Plasma concentration, geometric mean (CV%), 10 mg SC, day 18 cycle 1, 1 h after dosing, n = 1, LC-MS/MS): 283 ng/mL | level at 1.5 h (human, plasma, sc, 10 mg, Plasma concentration, geometric mean (CV%), 10 mg SC, day 18 cycle 1, 1.5 h after dosing, n = 1, LC-MS/MS): 352 ng/mL | level at 2 h (human, plasma, sc, 10 mg, Plasma concentration, geometric mean (CV%), 10 mg SC, day 18 cycle 1, 2 h after dosing, n = 1, LC-MS/MS): 325 ng/mL | level at 3.5 h (human, plasma, sc, 10 mg, Plasma concentration, geometric mean (CV%), 10 mg SC, day 18 cycle 1, 3.5 h after dosing, n = 1, LC-MS/MS): 113 ng/mL | level at 0.5 h (human, plasma, sc, 10 mg, Plasma concentration, geometric mean (CV%), 10 mg SC, day 18 cycle 2, 0.5 h after dosing, n = 1, LC-MS/MS): 158 ng/mL | level at 1 h (human, plasma, sc, 10 mg, Plasma concentration, geometric mean (CV%), 10 mg SC, day 18 cycle 2, 1 h after dosing, n = 1, LC-MS/MS): 193 ng/mL | level at 1.5 h (human, plasma, sc, 10 mg, Plasma concentration, geometric mean (CV%), 10 mg SC, day 18 cycle 2, 1.5 h after dosing, n = 1, LC-MS/MS): 242 ng/mL | level at 2 h (human, plasma, sc, 10 mg, Plasma concentration, geometric mean (CV%), 10 mg SC, day 18 cycle 2, 2 h after dosing, n = 1, LC-MS/MS): 288 ng/mL | level at 3.5 h (human, plasma, sc, 10 mg, Plasma concentration, geometric mean (CV%), 10 mg SC, day 18 cycle 2, 3.5 h after dosing, n = 1, LC-MS/MS): 161 ng/mL | level at 1 h (human, plasma, sc, 10 mg, Plasma concentration, geometric mean (CV%), 10 mg SC, day 18 cycle 4, 1 h after dosing, n = 1, LC-MS/MS): 176 ng/mL | level at 1.5 h (human, plasma, sc, 10 mg, Plasma concentration, geometric mean (CV%), 10 mg SC, day 18 cycle 4, 1.5 h after dosing, n = 1, LC-MS/MS): 193 ng/mL | level at 2 h (human, plasma, sc, 10 mg, Plasma concentration, geometric mean (CV%), 10 mg SC, day 18 cycle 4, 2 h after dosing, n = 1, LC-MS/MS): 171 ng/mL | level at 3.5 h (human, plasma, sc, 10 mg, Plasma concentration, geometric mean (CV%), 10 mg SC, day 18 cycle 4, 3.5 h after dosing, n = 1, LC-MS/MS): 157 ng/mL | level at 0.5 h (human, plasma, sc, 10 mg, Plasma concentration, geometric mean (CV%), 10 mg SC, day 18 cycle 6, 0.5 h after dosing, n = 1, LC-MS/MS): 171 ng/mL | level at 1.5 h (human, plasma, sc, 10 mg, Plasma concentration, geometric mean (CV%), 10 mg SC, day 18 cycle 6, 1.5 h after dosing, n = 1, LC-MS/MS): 470 ng/mL | level at 2 h (human, plasma, sc, 10 mg, Plasma concentration, geometric mean (CV%), 10 mg SC, day 18 cycle 6, 2 h after dosing, n = 1, LC-MS/MS): 403 ng/mL | level at 3.5 h (human, plasma, sc, 10 mg, Plasma concentration, geometric mean (CV%), 10 mg SC, day 18 cycle 6, 3.5 h after dosing, n = 1, LC-MS/MS): 179 ng/mL | Tmax [2]: 1.45 h | Tmax [3]: 0.5 h | Tmax [4]: 1.58 h | Tmax [5]: 2 h | Tmax [6]: 1.53 h | Tmax [7]: 1.85 h | AUC(0-t) [9]: 1040 ng·h/mL | AUC(0-t) [10]: 1160 ng·h/mL | AUC(0-t) [11]: 718 ng·h/mL | AUC(0-t) [12]: 1020 ng·h/mL | Cmax [9]: 542 ng/mL | Cmax [10]: 614 ng/mL | Cmax [11]: 319 ng/mL | Cmax [12]: 394 ng/mL | level at 0.25 h [13]: 136 ng/mL | level at 0.75 h [13]: 368 ng/mL
